The values that follow come from US20260176232A1, “PROBENECID COMPOUNDS FOR THE TREATMENT OF INFLAMMASOME-MEDIATED DERMATOLOGICAL CONDITIONS” (Bacainn Biotherapeutics, Ltd., priority 2022, published 2026).

The structures appear in SMILES notation.

In assay [1] the test system is NLRP3. Description: D4D8T immunoprecipitation of NLRP3 from photo-labelled iBMDMs (FIG. 9D). The conditions noted are these: ADS165, ADS167 1 mM; MCC 50 μM; UV 365 nm 30 mins.
For assay [2], the target named is T1, recombinant full length NLRP1 (Homo sapiens, UniProt Q9C000).
T1 sequence (Q9C000 1-1473): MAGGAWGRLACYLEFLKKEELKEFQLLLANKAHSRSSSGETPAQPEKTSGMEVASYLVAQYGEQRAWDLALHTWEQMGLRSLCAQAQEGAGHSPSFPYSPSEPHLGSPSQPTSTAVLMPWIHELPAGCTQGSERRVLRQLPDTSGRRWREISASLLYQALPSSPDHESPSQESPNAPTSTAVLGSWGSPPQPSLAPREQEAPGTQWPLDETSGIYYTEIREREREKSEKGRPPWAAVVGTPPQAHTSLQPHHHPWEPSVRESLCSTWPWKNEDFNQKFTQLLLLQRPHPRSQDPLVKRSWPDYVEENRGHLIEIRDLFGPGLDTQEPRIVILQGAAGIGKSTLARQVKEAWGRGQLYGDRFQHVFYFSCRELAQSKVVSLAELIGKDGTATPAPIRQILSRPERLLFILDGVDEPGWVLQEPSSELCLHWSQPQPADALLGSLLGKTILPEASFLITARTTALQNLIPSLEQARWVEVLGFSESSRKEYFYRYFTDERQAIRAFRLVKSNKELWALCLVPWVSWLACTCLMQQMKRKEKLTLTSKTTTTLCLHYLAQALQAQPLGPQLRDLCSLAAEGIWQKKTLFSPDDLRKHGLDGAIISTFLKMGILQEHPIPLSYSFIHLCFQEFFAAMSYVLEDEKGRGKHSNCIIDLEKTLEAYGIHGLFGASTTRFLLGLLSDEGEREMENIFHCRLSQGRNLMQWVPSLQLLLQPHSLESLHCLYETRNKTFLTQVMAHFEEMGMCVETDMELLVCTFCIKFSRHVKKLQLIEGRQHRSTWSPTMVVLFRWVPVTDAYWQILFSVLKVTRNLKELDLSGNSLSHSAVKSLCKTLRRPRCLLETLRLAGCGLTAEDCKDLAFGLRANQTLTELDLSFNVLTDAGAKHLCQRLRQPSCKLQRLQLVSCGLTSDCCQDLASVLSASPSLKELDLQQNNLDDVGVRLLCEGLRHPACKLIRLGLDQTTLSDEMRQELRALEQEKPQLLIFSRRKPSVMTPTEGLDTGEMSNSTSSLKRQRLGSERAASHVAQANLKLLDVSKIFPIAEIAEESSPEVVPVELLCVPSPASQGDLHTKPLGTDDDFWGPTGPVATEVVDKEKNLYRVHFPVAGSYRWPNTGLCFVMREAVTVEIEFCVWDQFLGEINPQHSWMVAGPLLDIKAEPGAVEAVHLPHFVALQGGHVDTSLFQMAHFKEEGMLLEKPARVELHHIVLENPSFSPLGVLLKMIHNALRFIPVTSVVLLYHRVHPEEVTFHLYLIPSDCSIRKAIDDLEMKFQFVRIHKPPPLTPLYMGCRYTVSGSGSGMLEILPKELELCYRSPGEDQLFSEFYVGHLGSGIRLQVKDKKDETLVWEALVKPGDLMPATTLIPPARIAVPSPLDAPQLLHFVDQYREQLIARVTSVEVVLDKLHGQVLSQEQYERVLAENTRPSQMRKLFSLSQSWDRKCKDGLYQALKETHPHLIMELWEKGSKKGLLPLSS
Kind of assay: Photo-affinity labelling of recombinant full length NLRP1, anti-PEG immunoblot (FIG. 9E). Format: binding. The settings on record: pre-incubation, UV 365 nm, then ADS165. As to the method:
FIGS. 9A-9F are a series of panels showing ADS032 (also referred to herein as “BT032”) directly binds to NLRP1 and NLRP3. FIGS. 9A and 9B are chemical structures of ADS165 and ADS167. […] ADS165 was then co-incubated for 20 mins and UV treated for 20 mins to cross-link associated compound and protein. Protein was separated by SDS-PAGE and immunoblotted (IB) with anti-PEG to visualize ADS165-linked protein. FIG. 9D: iBMDM cells stably expressing NLRP3-Flag were treated for 30 mins with ADS165, ADS167 (1 mM) or MCC955 (50 μM) for 30 mins, and irradiated with UV 365 nm for 30 mins. Cells were lysed with buffer and immunoprecipitation (IP) of NLRP3 performed with α-NLRP3 (D4D8T) antibody. Levels of precipitated (IP) and total cellular lysate (Input) NLRP3 were determined by immunoblotting with α-NLRP3 (Cryo-2) antibody. FIG. 9F: NLRP1-Flag was expressed in HEK293T cells (1×10^6) for 20 h and treated with ADS165 (1 mM) for 30 mins where indicated, followed by UV 365 nm for a further 30 mins. Cells were lysed with lysis buffer and […] immunoprecipitated with α-Flag (M2) antibody. Proteins were separated by SDS-PAGE and ADS165-linked NLRP1 identified by immunoblot with a-PEG, while total precipitated NLRP1 visualized by immunoblot with α-NLRP1 and total cell lysate by α-Flag. Data shown is representative of three independent experiments.
Next, it was determined whether ADSO32 could interact with NLRP1. […] To further investigate this interaction, ectopically expressed Flag-tagged NLRP1 was immunoprecipitated from cell lysates pretreated or not with ADS165 and exposed to UV light.
For orientation: A western blot detects proteins with antibodies after separation by electrophoresis.

The subject of assay [3] is Recombinant NLRP3. Kind of assay: Photo-affinity labelling of recombinant NLRP3, anti-PEG immunoblot (FIG. 9C). The conditions noted are these: pre-incubation 20 mins, UV 365 nm, then ADS165. The class given is binding.
In assay [4] the target is T2, NLRP3 (Mus musculus, UniProt Q8R4B8).
T2 construct: endogenous in cells; host or cells: iBMDMs
T2 sequence (Q8R4B8 whole entry): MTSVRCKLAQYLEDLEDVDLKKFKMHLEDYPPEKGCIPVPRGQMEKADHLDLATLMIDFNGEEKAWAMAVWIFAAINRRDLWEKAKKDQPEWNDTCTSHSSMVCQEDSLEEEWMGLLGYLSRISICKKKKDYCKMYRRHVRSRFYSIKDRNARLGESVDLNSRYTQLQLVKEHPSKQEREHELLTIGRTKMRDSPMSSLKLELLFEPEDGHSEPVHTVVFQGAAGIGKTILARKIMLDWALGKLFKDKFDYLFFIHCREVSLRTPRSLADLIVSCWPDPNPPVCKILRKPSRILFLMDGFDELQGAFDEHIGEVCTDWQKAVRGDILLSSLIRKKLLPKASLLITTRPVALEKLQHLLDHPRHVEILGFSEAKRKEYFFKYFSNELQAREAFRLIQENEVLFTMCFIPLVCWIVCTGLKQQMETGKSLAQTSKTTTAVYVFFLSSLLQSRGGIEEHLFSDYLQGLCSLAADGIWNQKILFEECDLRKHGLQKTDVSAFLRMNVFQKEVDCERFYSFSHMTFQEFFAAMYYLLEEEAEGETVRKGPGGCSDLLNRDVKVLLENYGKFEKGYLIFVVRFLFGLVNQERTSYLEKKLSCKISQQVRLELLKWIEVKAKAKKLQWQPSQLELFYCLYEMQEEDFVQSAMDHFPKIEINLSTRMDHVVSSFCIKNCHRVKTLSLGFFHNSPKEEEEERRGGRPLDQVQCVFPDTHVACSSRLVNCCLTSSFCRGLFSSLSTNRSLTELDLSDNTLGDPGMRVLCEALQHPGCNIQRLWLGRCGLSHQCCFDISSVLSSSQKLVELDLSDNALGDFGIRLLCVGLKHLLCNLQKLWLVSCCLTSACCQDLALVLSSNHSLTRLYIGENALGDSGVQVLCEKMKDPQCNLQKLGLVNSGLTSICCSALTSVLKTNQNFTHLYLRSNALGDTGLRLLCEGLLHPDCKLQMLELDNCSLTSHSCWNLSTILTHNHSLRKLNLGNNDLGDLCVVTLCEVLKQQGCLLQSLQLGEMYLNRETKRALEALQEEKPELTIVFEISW
Kind of assay: NLRP3-induced IL-1β secretion from iBMDMs, photo-affinity probes. The class given is cell-based. The settings on record: data not shown. The text has this:
To verify interaction with target proteins, a photo-affinity labeling strategy (MacKinnon+Taunton, 2009) was developed where two modified versions of ADSO32 (1) containing an alkyne photoactivatable moiety linked with a PEG550 moiety to allow visualization (FIG. 9A) termed ADS165; and (2) ADSO32 linked with a diazirine photo-affinity label, (FIG. 9B) termed ADS167 were synthesized. Both photo-affinity labels covalently cross-link to molecular targets when exposed to ultraviolet light (365 nm).

The subject of assay [5] is NLRP1 inflammasome. Kind of assay: IL-1β secretion in macrophages challenged with L18-MDP (FIG. 7). The class given is cell-based, human. The conditions noted are these: 20, 100, 350 μM, L18-MDP 100 μg/mL 16 hours, secreted IL-1β. The text has this:
(§1) In vitro stimulation of human macrophages.

Assay [6] deals with NLRP3 inflammasome (Mus musculus, UniProt Q8R4B8). Kind of assay: IL-1β secretion (ELISA) in LPS-primed iBMDMs stimulated with silica or nigericin. The class given is cell-based, murine (C57BL/6). Also noted: endogenous in cells; host or cells: immortalized wild-type C57BL/6 bone-marrow derived macrophages (iBMDMs), LPS-primed. The conditions noted are these: compared with probenecid in DMSO or PBS. As to the method: In vitro stimulation of murine macrophages. Immortalized wild-type C57BL/6 bone-marrow derived macrophages (iBMDMs) were grown in DMEM supplemented with 10% heat inactivated FBS and 2 mM glutamine. iBMDMs were seeded in 96-well plates 24 hours prior incubation with lipopolysaccharide (LPS; 100 ng/mL) for 3 hours. Cells were then incubated with a control probenecid compound (probenecid dissolved in DMSO (Prob/D), probenecid dissolved in PBS (Prob/P)) or one of the probenecid analogs of the present technology (BT032, BT132, BT133, BT134, BT135, BT136, BT137, BT138, BT139, or BT140) at concentrations of 300 μM, 150 μM, 30 μM, or 3 μM 1 hour prior to stimulation with NLRP3 inflammasome activators, silica ([…]) or nigericin (6 μM). After an additional 6 hours, cell supernatants were collected and levels of IL-1β were quantified by ELISA. These experiments were run in triplicate three times.
NLRP3 inflammasome, sequence (Q8R4B8 whole entry): as above
In general terms: In an ELISA, binding on a coated surface is turned into a signal by an enzyme label.

Assay [7] has as its system NLRP1 inflammasome. Kind of assay: IL-1β secretion in macrophages challenged with L18-MDP (FIG. 4C). The class given is cell-based, human. The settings on record: BT032 20, 100 μM; MCC950 5 μM; L18-MDP 100 μg/ml 16 h.
Text: as §1

With `CCCCN(CCC)S(=O)(=O)c1ccc(-c2ccc(CCCC(=O)NCc3ccc(C4(C(F)(F)F)N=N4)cc3)cc2)cc1` [ADS167], the “D4D8T-mediated NLRP3 immunoprecipitation” value in assay [1] is reported as “reduced the efficacy of D4D8T-mediated NLRP3 immunoprecipitation”. The “competition with ADS165 interaction with NLRP1” value in assay [2] was “could ablate interaction”. For the same molecule, the “competition with ADS165 labelling of NLRP3” value in assay [3] is listed as “inhibited the ability of ADS165 to label NLPR3”. In assay [4], the “NLRP3-induced IL-1β secretion from iBMDMs” value is on record as “still able to inhibit NLRP3-induced IL-1β secretion” and the “efficacy relative to ADS032 (NLRP3-induced IL-1β secretion)” value is “reduced efficacy as compared to ADS032”.

On to `CCCN(CCC)S(=O)(=O)c1ccc(N2CCC(CCCC(=O)O)CC2)cc1` [BT135, 4-(1-(4-(N,N-dipropylsulfamoyl)-phenyl)piperidin-4-yl)butanoic acid], for which, in assay [5], the “NLRP1 (L18-MDP)-induced inflammasome activation” value is “dose-dependently inhibited”.

Turning to `CCCN(CCC)S(=O)(=O)c1ccc(-c2nc(CCCC(=O)O)cs2)cc1` [BT136, 4-(2-(4-(N,N-dipropylsulfamoyl)phenyl)thiazol-4-yl)butanoic acid], the “NLRP1 (L18-MDP)-induced inflammasome activation” value in assay [5] is on record as “dose-dependently inhibited”. The “potency versus control probenecid compounds (IL-1β secretion)” value in assay [6] was “more potent than the control probenecid compounds”.

On to `CC(C)(O)c1coc(S(=O)(=O)NC(=O)Nc2c3c(cc4c2CCC4)CCC3)c1` [MCC950, reference compound], for which the “NLRP1 (L18-MDP)-induced inflammasome activation” value in assay [7] is reported as “no impact”. For the same molecule, the “competition with ADS165 interaction with NLRP1” value in assay [2] is recorded as “no effect”.
